The structures appear in SMILES notation.

In this assay the target is T1, Beta-glucuronidase (Homo sapiens, UniProt P08236).
T1 sequence (P08236 whole entry): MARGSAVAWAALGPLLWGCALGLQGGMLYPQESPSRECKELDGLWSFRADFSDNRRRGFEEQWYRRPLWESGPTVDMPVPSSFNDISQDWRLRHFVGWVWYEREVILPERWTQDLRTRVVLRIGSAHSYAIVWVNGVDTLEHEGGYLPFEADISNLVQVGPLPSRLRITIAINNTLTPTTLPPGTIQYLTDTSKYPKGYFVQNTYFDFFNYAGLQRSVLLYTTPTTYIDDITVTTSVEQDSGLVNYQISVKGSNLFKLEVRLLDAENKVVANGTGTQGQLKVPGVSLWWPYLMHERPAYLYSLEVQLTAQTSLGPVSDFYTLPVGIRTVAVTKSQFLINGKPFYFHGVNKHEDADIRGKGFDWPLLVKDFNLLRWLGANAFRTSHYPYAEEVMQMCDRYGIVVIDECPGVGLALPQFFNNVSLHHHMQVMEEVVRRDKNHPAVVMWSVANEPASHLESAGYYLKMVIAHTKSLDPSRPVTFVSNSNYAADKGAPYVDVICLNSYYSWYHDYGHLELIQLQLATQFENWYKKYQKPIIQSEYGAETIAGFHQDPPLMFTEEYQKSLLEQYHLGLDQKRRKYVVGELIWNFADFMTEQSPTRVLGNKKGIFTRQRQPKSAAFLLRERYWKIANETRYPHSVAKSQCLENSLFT
Description: β-Glucuronidase Assay.
Description: 250 μL was the volume of total reaction. Reaction mixture containing 5 μL of test compound solution, 185 μL of 0.1 M acetate buffer and 10 μL of enzyme solution were incubated for 30 min at 37 °C. […] To avoid precipitation compound concentration were decreased and the volume of reaction was high (200 μL). Precipitation probability was less thus addition of detergents was not needed.
As for `COc1ccccc1-c1nnc(-c2ccc(C(=O)NNS(=O)(=O)c3ccccc3F)cc2)o1` [2-Fluoro-N'-(4-(5-(2-methoxyphenyl)-1,3,4-oxadiazol-2yl)benzoyl)benzenesulfonohydrazide (4)], the IC50 – broadly, the concentration at which inhibition is half-maximal – was 10.3 µM.

Consider `COc1ccccc1-c1nnc(-c2ccc(C(=O)NNS(=O)(=O)c3ccc(C)cc3)cc2)o1` [4-methyl-N'-(4-(5-(2-methoxyphenyl)-1,3,4-oxadiazol-2-yl)benzoyl)-4-methylbenzenesulfonohydrazide (15)], for which the IC50 was 98.1 µM.

Regarding `COc1ccccc1-c1nnc(-c2ccc(C(=O)NNS(=O)(=O)c3ccccc3[N+](=O)[O-])cc2)o1` [N'-(4-(5-(2-methoxyphenyl)-1,3,4-oxadiazol-2-yl)benzoyl)-2-nitrobenzenesulfonohydrazide (10)], it took 44.7 µM to reach half-maximal inhibition (IC50).

For `COc1ccccc1-c1nnc(-c2ccc(C(=O)NNS(=O)(=O)c3cccc([N+](=O)[O-])c3)cc2)o1` [N'-(4-(5-(2-methoxyphenyl)-1,3,4-oxadiazol-2-yl)benzoyl)-3-nitrobenzenesulfonohydrazide (12)], the concentration for half-maximal inhibition (IC50) is 89.3 µM.

In the case of `COc1ccccc1-c1nnc(-c2ccc(C(=O)NNS(=O)(=O)c3cccc(Br)c3)cc2)o1` [3-Bromo-N'-(4-(5-(2-methoxyphenyl)-1,3,4-oxadiazol-2yl)benzoyl)benzenesulfonohydrazide (9)], the IC50 is 58.2 µM.

`COc1ccccc1-c1nnc(-c2ccc(C(=O)NNS(=O)(=O)c3ccccc3C)cc2)o1` [N'-(4-(5-(2-methoxyphenyl)-1,3,4-oxadiazol-2-yl)benzoyl)-2-methylbenzenesulfonohydrazide (14)] displayed an IC50 of 24.3 µM.

Take `COc1ccccc1-c1nnc(-c2ccc(C(=O)NNS(=O)(=O)c3cccc(F)c3)cc2)o1` [3-Fluoro-N'-(4-(5-(2-methoxyphenyl)-1,3,4-oxadiazol-2yl)benzoyl)benzenesulfonohydrazide (5)]: 28.1 µM corresponded to half-maximal inhibition (IC50).

For the compound `COc1ccccc1-c1nnc(-c2ccc(C(=O)NNS(=O)(=O)c3ccccc3Br)cc2)o1` [2-Bromo-N'-(4-(5-(2-methoxyphenyl)-1,3,4-oxadiazol-2yl)benzoyl)benzenesulfonohydrazide (7)], the IC50 worked out at 38.5 µM.

The values above are taken from BindingDB's records for doi:10.1016/j.bioorg.2017.01.015 (Universiti Teknologi MARA (UiTM), 2017).
